Values quoted from earlier work as cited in patent US20150056314A1, “EXTRACTION METHOD FOR USE IN EXTRACTING BENEFICIAL COMPOUNDS FROM COFFEE BEANS” (Applied Food Sciences, Inc., priority 2003, published 2015).

What was measured:
[1] = system: rat stomach cancer; details: rat (Shimizu et al J Toxicol Sci 1999)
[2] = system: methylazoxymethanol-induced large intestinal tumors; details: hamster models

## O=C(/C=C/c1ccc(O)c(O)c1)O[C@@H]1C[C@](O)(C(=O)O)C[C@@H](O)[C@H]1O [chlorogenic acid]
[1]
  effect on rat stomach cancer: chemopreventative effect
[2]
  inhibition of methylazoxymethanol-induced large intestinal tumors: inhibit
